Measured values from article PMC8571282 (Nature Communications, 2021).
Values joined by “and” are separate entries in the source; they are usually repeats but may differ in a detail not shown here. Identical values can stand only once. Like-named read-outs stand apart in the source and are kept apart here.

Legend:
VeroE6 cells = experiment: Cytotoxicity assay (PrestoBlue), VeroE6; details: 72 h
[1] = cited from earlier work
[2] = dogs, reported; cited from earlier work
[3] = Toxicity-testing across the cell panel (range); details: human, African green monkey, hamster
“F2” primary HAE cells = experiment: Cytotoxicity assay (PrestoBlue), “F2” HAE; details: 72 h; for % cell viability: F2 HAE
BHK-21 cells = experiment: Cytotoxicity assay (PrestoBlue), BHK-21; details: 72 h
in vitro [4] = details: human, CC50, “M2” HAE
HCT-8 cells = experiment: Cytotoxicity assay (PrestoBlue), HCT-8; details: for % cell viability: 72 h
[5] = type: in vivo, ferret (Mustela putorius furo); details: b.i.d.; for Bodyweight, Mean 2 (treated group) / Bodyweight, Mean Diff. (Vehicle vs. treated): Fig 3e; for Temperature, Mean 2 (treated group) / Temperature, Mean Diff. (Vehicle vs. treated): Fig 3d
HEp-2 cells = experiment: Cytotoxicity assay (PrestoBlue), HEp-2; details: for % cell viability: 72 h
in vitro [6] = details: African green monkey, % cell viability, 72 h
[7] = GS-441524 and metabolite concentrations in ferret lung tissue; details: single 30 mg/kg oral GS-621763, 24 h
in vitro [8] = details: male, human, % cell viability, M6 HAE, 0.046 µM
SARS-CoV-2 WA1/2020 = type: in vivo, ferret (Mustela putorius furo)
[9] = test system: SARS-CoV-2 VOC γ (BZ/2021); type: in vivo, ferret (Mustela putorius furo)
[10] = test system: “DF2” primary HAE cells (diseased, asthma); details: 72 h

Compound: N#C[C@@]1(c2ccc3c(N)ncnn23)O[C@H](CO)[C@@H](O)[C@H]1O [GS-441524]
- % cell viability (VeroE6 cells; VeroE6, 0.046 µM, 0.046 µM): 56% and 59%
- % cell viability (VeroE6 cells; VeroE6, 1.235 µM, 1.235 µM): 91% and 82%
- % cell viability (VeroE6 cells; VeroE6, 3.704 µM, 3.704 µM): 92%
- % cell viability (VeroE6 cells; VeroE6, 100 µM, 100 µM): 59%
- oral bioavailability ([1]; SARS-CoV2 mouse model report, ref Li et al (J. Med Chem. 2021)): 5%
- oral availability ([1]; mice, ref Wei et al. (Bioorg. Med Chem Lett 2021, 116364)): 16%
- oral availability [2]: 89%
- CC50 at 72 h [3]: > 100 µM

Compound: CC(C)C(=O)OCC1OC(C#N)(c2ccc3c(N)ncnn23)C(OC(=O)C(C)C)C1OC(=O)C(C)C (stereo not shown) [GS-621763]
- % cell viability (VeroE6 cells; VeroE6, 0.046 µM, 0.046 µM): 61% and 56%
- % cell viability (VeroE6 cells; VeroE6, 1.235 µM, 1.235 µM): 82%
- % cell viability (VeroE6 cells; VeroE6, 3.704 µM, 3.704 µM): 97%
- % cell viability (VeroE6 cells; VeroE6, 33.333 µM, 33.333 µM): 103%
- % cell viability (VeroE6 cells; VeroE6, 100 µM, 100 µM): -4% and -6% and -7%
- % cell viability (“F2” primary HAE cells; 0.046 µM): 84% and 81%
- % cell viability (“F2” primary HAE cells; 1.235 µM): 109%
- % cell viability (“F2” primary HAE cells; 3.704 µM): 109%
- % cell viability (“F2” primary HAE cells; 33.333 µM): 87% and 80%
- CC50 (“F2” primary HAE cells; “F2” HAE): 43.8 µM
- % cell viability (BHK-21 cells; BHK-21, 0.046 µM, 0.046 µM): 79%
- % cell viability (BHK-21 cells; BHK-21, 1.235 µM, 1.235 µM): 92%
- % cell viability (BHK-21 cells; BHK-21, 3.704 µM, 3.704 µM): 96% and 93%
- % cell viability (BHK-21 cells; BHK-21, 33.333 µM, 33.333 µM): 95%
- % cell viability (BHK-21 cells; BHK-21, 100 µM, 100 µM): 84%
- CC50 at 72 h (in vitro [4]): 39.7 µM
- % cell viability (HCT-8 cells; HCT-8, 0.046 µM, 0.046 µM): 75% and 72%
- % cell viability (HCT-8 cells; HCT-8, 1.235 µM, 1.235 µM): 103%
- % cell viability (HCT-8 cells; HCT-8, 33.333 µM, 33.333 µM): 96%
- % cell viability (HCT-8 cells; HCT-8, 100 µM, 100 µM): 1%
- CC50 (HCT-8 cells; HCT-8, 72 h): 74.6 µM
- Bodyweight, Mean 2 (treated group) ([5]; Row 1 (time), 3 mg/kg): 100
- Bodyweight, Mean Diff. (Vehicle vs. treated) ([5]; Row 1 (time), 3 mg/kg): 0
- Bodyweight, Mean 2 (treated group) ([5]; Row 1 (time), 10 mg/kg): 100
- Bodyweight, Mean Diff. (Vehicle vs. treated) ([5]; Row 1 (time), 10 mg/kg): 0
- Bodyweight, Mean 2 (treated group) ([5]; Row 2 (time), 3 mg/kg): 98.83
- Bodyweight, Mean Diff. (Vehicle vs. treated) ([5]; Row 2 (time), 3 mg/kg): 1.898
- Bodyweight, Mean 2 (treated group) ([5]; Row 2 (time), 10 mg/kg): 104.7
- Bodyweight, Mean Diff. (Vehicle vs. treated) ([5]; Row 2 (time), 10 mg/kg): -3.948
- Bodyweight, Mean 2 (treated group) ([5]; Row 3 (time), 3 mg/kg): 102.4
- Bodyweight, Mean Diff. (Vehicle vs. treated) ([5]; Row 3 (time), 3 mg/kg): -1.11
- Bodyweight, Mean 2 (treated group) ([5]; Row 3 (time), 10 mg/kg): 103.7
- Bodyweight, Mean Diff. (Vehicle vs. treated) ([5]; Row 3 (time), 10 mg/kg): -2.374
- Bodyweight, Mean 2 (treated group) ([5]; Row 4 (time), 3 mg/kg): 104.1
- Bodyweight, Mean Diff. (Vehicle vs. treated) ([5]; Row 4 (time), 3 mg/kg): -1.927
- Bodyweight, Mean 2 (treated group) ([5]; Row 4 (time), 10 mg/kg): 106.9
- Bodyweight, Mean Diff. (Vehicle vs. treated) ([5]; Row 4 (time), 10 mg/kg): -4.724
- Bodyweight, Mean 2 (treated group) ([5]; Row 5 (time), 3 mg/kg): 105.2
- Bodyweight, Mean Diff. (Vehicle vs. treated) ([5]; Row 5 (time), 3 mg/kg): -2.7
- Bodyweight, Mean 2 (treated group) ([5]; Row 5 (time), 10 mg/kg): 107.9
- Bodyweight, Mean Diff. (Vehicle vs. treated) ([5]; Row 5 (time), 10 mg/kg): -5.412
- Temperature, Mean 2 (treated group) ([5]; Row 1 (time), 3 mg/kg): 38.95
- Temperature, Mean Diff. (Vehicle vs. treated) ([5]; Row 1 (time), 3 mg/kg): 0.2
- Temperature, Mean 2 (treated group) ([5]; Row 1 (time), 10 mg/kg): 38.53
- Temperature, Mean Diff. (Vehicle vs. treated) ([5]; Row 1 (time), 10 mg/kg): 0.625
- Temperature, Mean 2 (treated group) ([5]; Row 2 (time), 3 mg/kg): 38.75
- Temperature, Mean Diff. (Vehicle vs. treated) ([5]; Row 2 (time), 3 mg/kg): -0.075
- Temperature, Mean 2 (treated group) ([5]; Row 2 (time), 10 mg/kg): 39.03
- Temperature, Mean Diff. (Vehicle vs. treated) ([5]; Row 2 (time), 10 mg/kg): -0.35
- Temperature, Mean 2 (treated group) ([5]; Row 3 (time), 3 mg/kg): 38.78
- Temperature, Mean Diff. (Vehicle vs. treated) ([5]; Row 3 (time), 3 mg/kg): -0.1
- Temperature, Mean 2 (treated group) ([5]; Row 3 (time), 10 mg/kg): 38.85
- Temperature, Mean Diff. (Vehicle vs. treated) ([5]; Row 3 (time), 10 mg/kg): -0.175
- Temperature, Mean 2 (treated group) ([5]; Row 4 (time), 3 mg/kg): 38.93
- Temperature, Mean Diff. (Vehicle vs. treated) ([5]; Row 4 (time), 3 mg/kg): -0.275
- Temperature, Mean 2 (treated group) ([5]; Row 4 (time), 10 mg/kg): 38.73
- Temperature, Mean Diff. (Vehicle vs. treated) ([5]; Row 4 (time), 10 mg/kg): -0.075
- Temperature, Mean 2 (treated group) ([5]; Row 5 (time), 3 mg/kg): 38.73
- Temperature, Mean Diff. (Vehicle vs. treated) ([5]; Row 5 (time), 3 mg/kg): -0.15
- Temperature, Mean 2 (treated group) ([5]; Row 5 (time), 10 mg/kg): 38.2
- Temperature, Mean Diff. (Vehicle vs. treated) ([5]; Row 5 (time), 10 mg/kg): 0.375
- % cell viability (HEp-2 cells; HEp-2, 0.046 µM, 0.046 µM): 67% and 49%
- % cell viability (HEp-2 cells; HEp-2, 3.704 µM, 3.704 µM): 107% and 97%
- CC50 (HEp-2 cells; HEp-2, 72 h): 79.4 µM
- viability at 72 h, 1.235 µM (in vitro [6]; VeroE6, 1.235 µM): 87%
- viability at 72 h, 3.704 µM (in vitro [6]; VeroE6, 3.704 µM): 87%
- viability at 72 h, 33.333 µM (in vitro [6]; VeroE6, 33.333 µM): 101%
- GS-443902 levels in respiratory tissues trailing those of intravenous 10 mg/kg remdesivir [7]: approximately fourfold
- viability at 72 h, 0.046 µM (in vitro [8]): 92%
- Transform of Nasal turbinate titers, Mean (treated) (SARS-CoV-2 WA1/2020; Fig 2f, 20 mg kg-1 b.i.d., sample size 4): 2.037
- Transform of Nasal turbinate titers, Difference between means (C - A) ± SEM (SARS-CoV-2 WA1/2020; Fig 2f, treated minus Vehicle, 20 mg kg-1 b.i.d., unpaired t test): -2.239 ± 0.3026
- Transform of Small Intestine copies/gram, Mean (treated) (SARS-CoV-2 WA1/2020; Fig 2i, 20 mg kg-1 b.i.d., sample size 4): 0
- Transform of Small Intestine copies/gram, Difference between means (C - A) ± SEM (SARS-CoV-2 WA1/2020; Fig 2i, treated minus Vehicle, 20 mg kg-1 b.i.d., unpaired t test): -1.018 ± 1.018
- Transform of Large Intestine copies/gram, Mean (treated) (SARS-CoV-2 WA1/2020; Fig 2j, 20 mg kg-1 b.i.d., sample size 4): 0
- Transform of Large Intestine copies/gram, Difference between means (C - A) ± SEM (SARS-CoV-2 WA1/2020; Fig 2j, treated minus Vehicle, 20 mg kg-1 b.i.d., unpaired t test): -1.911 ± 1.104
- Transform of Nasal Turbinate RNA copies/g, Mean (treated) (SARS-CoV-2 WA1/2020; Fig 2h, 20 mg kg-1 b.i.d., sample size 4): 3.868
- Transform of Nasal Turbinate RNA copies/g, Difference between means (C - A) ± SEM (SARS-CoV-2 WA1/2020; Fig 2h, treated minus Vehicle, 20 mg kg-1 b.i.d., unpaired t test): -2.950 ± 0.3528
- SARS-CoV-2 RNA copies in lungs (SARS-CoV-2 WA1/2020; in vivo): not detected
- SARS-CoV-2 infectious particles in lungs (SARS-CoV-2 WA1/2020; in vivo): 109 pfu
- Virus titers from nasal lavages (SARS-CoV-2 WA1/2020; in vivo): 9 pfu
- shed SARS-CoV-2 load in nasal lavages (SARS-CoV-2 WA1/2020; in vivo): transiently detectable in lavages of only one ferret
- viral RNA copy numbers in turbinates, difference between vehicle and treatment groups (SARS-CoV-2 WA1/2020; in vivo): three
- virus in nasal turbinates 4 days after infection (SARS-CoV-2 WA1/2020; in vivo): undetectable
- SARS-CoV-2 RNA copies in lungs of contacts (Fig 4G) ([9]; Contact - GS-621763): not detected
- Nasal turbinate RNA, Mean Diff. GS-621763 vs. Contact - GS-621763 ([9]; Fig 4e, […], 10 mg/kg b.i.d.): 0.9216
- Nasal turbinate RNA, Mean Diff. GS-621763 vs. Contact - Vehicle ([9]; Fig 4e, […], 10 mg/kg b.i.d.): -3.233
- Nasal turbinate RNA, group mean of Contact - GS-621763 (Transform of Brazil - Nasal Turbinate RNA) ([9]; Fig 4e, […], contacts of GS-621763-treated source animals): 4.287
- Turbinate titers, Mean Diff. GS-621763 vs. Contact - GS-621763 ([9]; Fig 4d, […], 10 mg/kg b.i.d.): 0
- Turbinate titers, Mean Diff. GS-621763 vs. Contact - Vehicle ([9]; Fig 4d, […], 10 mg/kg b.i.d.): -3.824
- Turbinate titers, group mean of Contact - GS-621763 (Transform of Brazil - Turbinate Titers) ([9]; Fig 4d, […], contacts of GS-621763-treated source animals): 0.9542
- Infectious virus titer in nasal lavage of contacts (Fig 4B) ([9]; in vivo): 5 pfu
- Nasal turbinate RNA, Mean Diff. Contact - Vehicle vs. Contact - GS-621763 ([9]; in vivo): 4.155
- Nasal turbinate RNA, Mean Diff. Vehicle vs. Contact - GS-621763 ([9]; in vivo): 4.881
- Turbinate titers, Mean Diff. Contact - Vehicle vs. Contact - GS-621763 ([9]; in vivo): 3.824
- Turbinate titers, Mean Diff. Vehicle vs. Contact - GS-621763 ([9]; in vivo): 3.511
- viral RNA in nasal turbinates of contact animals of treated source ferrets ([9]; in vivo): < 10^5 copies/g nasal turbinate
- virus transmission to untreated direct-contact animals ([9]; in vivo): completely blocked virus transmission
- % cell viability ([10]; DF2 HAE, 1.235 µM): 106%
- % cell viability ([10]; DF2 HAE, 3.704 µM): 113%
- % cell viability ([10]; DF2 HAE, 33.333 µM): 114%
- % cell viability ([10]; human, 100 µM): 5%
